Measurements as given in patent publication US10689383B2, “Optionally fused heterocyclyl-substituted derivatives of pyrimidine useful for the treatment of inflammatory, metabolic, oncologic and autoimmune diseases” (NUEVOLUTION A/S, priority 2014, dated 2020).

What was measured:
Th17 cells = assay: Th17 Assay (IL-17 levels in supernatants by ELISA); assay type: cell-based; conditions: Homo sapiens; read-out: Th17 activity range @ 1 μM (% inhibition)
Procedure: The activity of the compounds was evaluated using a Fluorescence Polarization (FP) Assay and, in most cases, a Th17 Assay and/or RORγ Reporter assay (also referred to as Gal4 assay). The FP assay is an in vitro assay monitoring binding within the ligand binding pocket. The RORγ and the Th17 assays are both cell-based assays monitoring functional activity of the compound assayed.
Human peripheral blood mononuclear cells (PBMCs) were isolated from buffy coats of healthy human volunteers using the Ficoll paque PLUS kit (GE Healthcare, cat no 17-1440-02), as instructed by the manufacturer. Naive CD4+ T cells were isolated with Naive CD4+ T cell kit, human (Milteny Biotec, cat no 130-094-131). The following modifications were made to the manufacturer's protocol: 1) Incubation with Biotin-Antibody Cocktail and Anti-Biotin MicroBeads was prolonged to 30 minutes, and 2) Cells were washed with 40 mL of Miltenyi buffer. Differentiation of Th17 cells in anti-CD3 (BD Pharmingen, 5 μg/ml) coated 96-well plates (400,000 cells/well, 160 μl RPMI 1640+10% Fetal Bovine Serum) containing 5 μg/ml anti-CD28 (BD Pharmingen), 10 ng/ml IL-2 (R&D Systems), 2.5 ng/ml TGFβ-1 (R&D Systems), 20 ng/ml IL-1β (R&D Systems), 20 ng/ml IL-6 (R&D Systems), 30 ng/ml IL-23 (R&D Systems), 2.5 μg/ml anti-IL-4 (R&D Systems) and 1 μg/ml anti-IFNγ (R&D Systems) and with test compound during the entire differentiation (or vehicle, 0.1% DMSO for control). Test compounds were tested in triplicates, diluted 1000-fold in medium (final DMSO concentration is 0.1%). Incubated for seven days at 37° C., 5% CO2, 95% humidity, and 2-fluoro-4′-[[4-(4-pyridinylmethyl)-1-piperazinyl]methyl]-α,α-bis(trifluoromethyl)-[1,1′-biphenyl]-4-methanol (SR2211 Calbiochem, Cat. No. 557353) was used as positive control. As negative control, cells were differentiated into Th0 using 5 μg/ml anti-CD28 (BD Pharmingen), 10 ng/ml IL-2 (R&D Systems), 2 μg/ml anti-IL4 (R&D Systems) and 2 μg/ml anti-IFNγ (R&D Systems) are negative control. IL-17 levels in supernatants were measured with ELISA (R&D Systems).

[1] = target: T1, human RORγt (Ligand Binding Domain) (Homo sapiens, UniProt P51449); assay: Fluorescence Polarization (FP) Assay; conditions: Fluorescence Polarization (FP) Assay; values given as upper bounds of activity ranges; read-out: FP activity range
T1 construct: purchased Crelux (Planegg, Germany) batch no PC5032-1
T1 sequence (P51449 269-508 limits assumed): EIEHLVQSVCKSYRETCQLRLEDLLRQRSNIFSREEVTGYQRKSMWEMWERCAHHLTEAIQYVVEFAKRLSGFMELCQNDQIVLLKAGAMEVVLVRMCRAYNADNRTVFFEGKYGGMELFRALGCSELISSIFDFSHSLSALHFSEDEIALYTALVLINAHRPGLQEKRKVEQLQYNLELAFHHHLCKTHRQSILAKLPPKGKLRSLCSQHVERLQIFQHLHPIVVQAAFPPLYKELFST
How it was run: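 Binding to the ligand pocket followed by fluorescence polarization with a TAMRA-tagged RORγt ligand probe of 910 g/mole. Negative control wells received DMSO only.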

[2] = target: T2, yeast Gal4-DNA binding domain fused to the ligand binding domain of human RORγ (Homo sapiens, UniProt P51449); assay: RORγ Reporter Assay (Gal4); assay type: cell-based; conditions: values given as lower bounds of ranges; for Gal4 activity range @ 0.1 μM (% inhibition): RORγ Reporter Assay (Gal4) at 0.1 μM; for Gal4 activity range @ 1 μM (% inhibition): RORγ Reporter Assay (Gal4) at 1 μM
T2 construct: host or cells: HEK293t
T2 sequence (P51449 269-508 limits assumed): T1 sequence (P51449 269-508 limits assumed)
How it was run: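 Compound at final 1,000 or 100 nM (0.1% DMSO, triplicate) was added to the transfected HEK293t cells carrying a Gal4-UAS luciferase reporter for 24 h at 37 °C, 10% charcoal-stripped FBS. Activity reduction expressed as percent of vehicle-only luciferase signal.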

IC50 [1]	Gal4 activity range @ 0.1 μM (% inhibition) [2]	Gal4 activity range @ 1 μM (% inhibition) [2]	Compound	inhibition at 1 µM (Th17 cells)
			CC(C)C[C@@H](Oc1ncnc(N2CCC[C@@H]2c2ccc(C(F)(F)F)cc2)c1F)C(N)=O (single isomer, unassigned) [Example 77, (2R)-2-[5-fluoro-6-[(2R)-2-[4-(trifluoromethyl)phenyl]pyrrolidin-1-yl]pyrimidin-4-yl]oxy-4-methyl-pentanamide or (2R)-2-[5-fluoro-6-[(2S)-2-[4-(trifluoromethyl)phenyl]pyrrolidin-1-yl]pyrimidin-4-yl]oxy-4-methyl-pentanamide]	> 50%
< 10000 nM			CC(C)(C)C[C@@H](Nc1cc(N2CCCC2c2ccc(C(F)(F)F)cc2)ncn1)C(N)=O (stereo partly drawn) [Example 6, (2R)-4,4-dimethyl-2-[[6-[2-[4-(trifluoromethyl)phenyl]pyrrolidin-1-yl]pyrimidin-4-yl]amino]pentanamide]	> 20%
< 10000 nM			CC(C)(C)C[C@@H](Nc1nc(C(F)(F)F)nc(N2CCCC2c2ccc(C(F)(F)F)cc2)c1F)C(N)=O (stereo partly drawn) [Example 13, (2R)-2-[[5-fluoro-2-(trifluoromethyl)-6-[2-[4-(trifluoromethyl)phenyl]pyrrolidin-1-yl]pyrimidin-4-yl]amino]-4,4-dimethyl-pentanamide]	> 20%
			COC(C)(C)CC(C)Nc1ncnc(N2CCCC2c2ccc(C(F)(F)F)cc2)c1F (stereo not drawn) [Example 16, 5-fluoro-N-(3-methoxy-1,3-dimethyl-butyl)-6-[2-[4-(trifluoromethyl)phenyl]pyrrolidin-1-yl]pyrimidin-4-amine]	> 0%
< 500 nM			CC1CC(c2ccc(C(F)(F)F)cc2)N(c2ncnc(N[C@H](CC(C)(C)C)C(N)=O)c2F)C1 (stereo partly drawn) [Example 18, (2R)-2-[[5-fluoro-6-[4-methyl-2-[4-(trifluoromethyl)phenyl]pyrrolidin-1-yl]pyrimidin-4-yl]amino]-4,4-dimethyl-pentanamide]	> 80%
< 500 nM			CC(C)(C)C[C@@H](Nc1ncnc(N2CCCC2c2ccc(C(C)(C)C)cc2)c1F)C(N)=O (stereo partly drawn) [Example 19, (2R)-2-[[6-[2-(4-tert-butylphenyl)pyrrolidin-1-yl]-5-fluoro-pyrimidin-4-yl]amino]-4,4-dimethyl-pentanamide]	> 80%
< 1000 nM			COc1ccc(C[C@H](CO)Nc2ncnc(N3CCCC3c3ccc(C(F)(F)F)cc3)c2F)cc1 (stereo partly drawn) [Example 29, (2R)-2-[[5-fluoro-6-[2-[4-(trifluoromethyl)phenyl]pyrrolidin-1-yl]pyrimidin-4-yl]amino]-3-(4-methoxyphenyl)propan-1-ol]	> 50%
< 10000 nM			CC(C)C[C@@H](Nc1ncnc(N2CC(C)CC2c2ccc(C(F)(F)F)cc2)c1F)C(=O)O (stereo partly drawn) [Example 33, (2R)-2-[[5-fluoro-6-[4-methyl-2-[4-(trifluoromethyl)phenyl]pyrrolidin-1-yl]pyrimidin-4-yl]amino]-4-methyl-pentanoic acid]	> 20%
< 500 nM			CC(C)(C)C[C@@H](Nc1ncnc(N2CCCC2c2ccc(C(F)(F)F)cc2Cl)c1F)C(N)=O (stereo partly drawn) [Example 35, (2R)-2-[[6-[2-[2-chloro-4-(trifluoromethyl)phenyl]pyrrolidin-1-yl]-5-fluoro-pyrimidin-4-yl]amino]-4,4-dimethyl-pentanamide]	> 50%
< 2000 nM			CC(C)(C)C[C@@H](Nc1ncnc(N2CCCC2c2ccc(C(F)(F)F)cc2Cl)c1F)C(=O)O (stereo partly drawn) [Example 36, (2R)-2-[[6-[2-[2-chloro-4-(trifluoromethyl)phenyl]pyrrolidin-1-yl]-5-fluoro-pyrimidin-4-yl]amino]-4,4-dimethyl-pentanoic acid]	> 50%
< 2000 nM			CC1CCN(c2ncnc(N[C@H](CC(C)(C)C)C(N)=O)c2F)C1c1ccc(C(F)(F)F)cc1 (stereo partly drawn) [Example 38, (2R)-2-[[5-fluoro-6-[3-methyl-2-[4-(trifluoromethyl)phenyl]pyrrolidin-1-yl]pyrimidin-4-yl]amino]-4,4-dimethyl-pentanamide]	> 50%
< 1000 nM			NC(=O)Cc1ccc(CNc2ncnc(N3CCCC3c3ccc(C(F)(F)F)cc3)c2F)cc1 (stereo not drawn) [Example 40, 2-[4-[[[5-fluoro-6-[2-[4-(trifluoromethyl)phenyl]pyrrolidin-1-yl]pyrimidin-4-yl]amino]methyl]phenyl]acetamide]	> 80%
			CC(C)C[C@@H](Oc1ncnc(-n2nccc2-c2ccc(C(F)(F)F)cc2)c1F)C(N)=O [Example 80, (2R)-2-[5-fluoro-6-[5-[4-(trifluoromethyl)phenyl]pyrazol-1-yl]pyrimidin-4-yl]oxy-4-methyl-pentanamide]	> 50%
			O=C(O)Cc1ccc(COc2ncnc(NCc3ccc(C(F)(F)F)cc3)c2F)cc1 [Example 83, 2-[4-[[5-fluoro-6-[[4-(trifluoromethyl)phenyl]methylamino]pyrimidin-4-yl]oxymethyl]phenyl]acetic acid]	> 20%
< 500 nM	>80 % inhibition	>80 % inhibition	COCCNS(=O)(=O)c1ccc(CNc2ncnc(N3CCC[C@@H]3c3ccc(C(F)(F)F)cc3)c2F)cc1 [Example 320, 4-[[[5-fluoro-6-[(2R)-2-[4-(trifluoromethyl)phenyl]pyrrolidin-1-yl]pyrimidin-4-yl]amino]methyl]-N-(2-methoxyethyl)benzenesulfonamide]	
< 500 nM	>80 % inhibition	>80 % inhibition	NC(=O)Cc1ccc(CNc2ncnc(N3CCCC3c3ccc(C(F)(F)F)cc3O)c2F)cc1 (stereo not drawn) [Example 323, 2-[4-[[[5-fluoro-6-[2-[2-hydroxy-4-(trifluoromethyl)phenyl]pyrrolidin-1-yl]pyrimidin-4-yl]amino]methyl]phenyl]acetamide]	
< 500 nM	>50 % inhibition	>80 % inhibition	CS(=O)(=O)N1CCC(CNc2ncnc(N3CCCC3c3ccc(C(F)(F)F)cc3O)c2F)CC1 (stereo not drawn) [Example 324, 2-[1-[5-fluoro-6-[(1-methylsulfonyl-4-piperidyl)methylamino]pyrimidin-4-yl]pyrrolidin-2-yl]-5-(trifluoromethyl)phenol]	
< 500 nM	>50 % inhibition	>80 % inhibition	NC(=O)Cc1ccc(Cn2ccc3c(N4CCOC[C@@H]4c4ccc(C(F)(F)F)nc4)ncnc32)cc1 [Example 326, 2-[4-[[4-[(3S)-3-[6-(trifluoromethyl)-3-pyridyl]morpholin-4-yl]pyrrolo[2,3-d]pyrimidin-7-yl]methyl]phenyl]acetamide]	
< 1000 nM	>20 % inhibition	>80 % inhibition	CS(=O)(=O)N1CCC(CNc2ncnc(N3CCOC[C@@H]3c3ccc(C(F)(F)F)cc3)c2F)C1 (stereo partly drawn) [Example 327, 5-fluoro-N-[(1-methylsulfonylpyrrolidin-3-yl)methyl]-6-[(3S)-3-[4-(trifluoromethyl)phenyl]morpholin-4-yl]pyrimidin-4-amine]	
< 500 nM	>80 % inhibition	>80 % inhibition	NC(=O)Cc1ccc(Cn2ccc3c(N4CCOC[C@@H]4c4ccc(C(F)(F)F)cn4)ncnc32)cc1 [Example 328, 2-[4-[[4-[(3S)-3-[5-(trifluoromethyl)-2-pyridyl]morpholin-4-yl]pyrrolo[2,3-d]pyrimidin-7-yl]methyl]phenyl]acetamide]	
